Reference: BindingDB's records for patent US11834430 (Agency For Science, Technology and Research, 2023)

Target: Protein-S-isoprenylcysteine O-methyltransferase (Homo sapiens, UniProt O60725)
Test: ICMT Biochemical Assay
Experimental: An ICMT enzymatic assay was developed using Promega's Methyltransferase-GloTMreagents. In the assay, ICMT catalyzes the methylation of the N-Acetyl-S-farnesyl-L-cysteine by transferring a methyl group from SAM to the farnesylated cysteine and further converts the SAM to SAH. The methyltransferase activity is measured based on the amount of SAH produced from the reaction through the use of coupling enzymes that convert the SAH to ATP. […] A final concentration of 2.0 μM and 20 μM of SAM and peptide were added and further incubated for 90 minutes at room temperature before adding the MTase Glo and detection reagent. Reaction signals were detected using microplate readers on luminescent mode (Satire Tecan).

Chain of Protein-S-isoprenylcysteine O-methyltransferase (O60725 whole entry): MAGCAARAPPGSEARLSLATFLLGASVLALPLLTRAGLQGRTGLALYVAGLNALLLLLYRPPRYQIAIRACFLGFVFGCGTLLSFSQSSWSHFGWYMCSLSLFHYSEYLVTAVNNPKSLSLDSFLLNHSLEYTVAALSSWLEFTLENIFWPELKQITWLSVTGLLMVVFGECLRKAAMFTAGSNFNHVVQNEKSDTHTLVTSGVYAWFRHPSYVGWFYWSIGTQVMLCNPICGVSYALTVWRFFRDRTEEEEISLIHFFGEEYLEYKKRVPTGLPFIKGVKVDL

Row | IC50 [nM] | SMILES
1 | 76 | COc1cc(Cl)ccc1OCCOc1cccc(-n2ccnc2C)c1 [US11834430, Compound 45]
2 | 18 | N#Cc1ccc(OCCOc2ccc(F)c(-c3ccnn3C3CC3)c2)c(F)c1 [US11834430, Compound 88]
